Measured values: paper PMC10364322, “Evaluation of chronic drug-induced electrophysiological and cytotoxic effects using human-induced pluripotent stem cell-derived cardiomyocytes (hiPSC-CMs)” (Frontiers in Pharmacology, 2023)
Like-named read-outs stand apart in the source and are kept apart here.

How the values were obtained:
[1] = system: hiPSC-CMs (iCell-Cardiomyocytes^2); test: MEA impedance (cytotoxicity readout) in hiPSC-CMs
[2] = system: human embryonic stem cell-derived cardiomyocytes; set-up: method as in Hihara et al., 2014; settings: 10 µM; 24 h-treatment; 4% in vehicle-treated wells; ref Hihara et al., 2014; cited from earlier work
[3] = system: hiPSC-CMs (iCell-Cardiomyocytes^2); test: ApoLive-Glo Multiplex Assay: viability (live cells); format: cell-based, human
Method: (§1) iCell-Cardiomyocytes^2 (Fujifilm Cellular Dynamics Inc., Madison, WI, United States) were seeded into 96 well-plates (Greiner Bio One, ref. 655946) according to the manufacturer instructions, at a density of 50 k cells/well. […] To assess effects on viability and cytotoxicity, two assay combination kits were used: 1) RealTime-Glo™ Annexin V Apoptosis and Necrosis Assay [Promega, JA1011 ([Kupcho et al., 2019])] and 2) ApoLive-Glo Multiplex Assay [Promega, G6410 ([Flörkemeier et al., 2022])]. The assays were performed according to manufacturer instructions. The experiments were repeated at 24, 48, and 72 h in order to assess any time-dependent change in live cells or activation of cell-death pathways.
(§2) The nonparametric Wilcoxon-Mann Whitney Test was used to compare the percent change from the baseline (Δ%) value between the group treated with the compound at a given concentration and the group treated with the DMSO at each matching time points. A two-sided test at 5% significance level was considered. […] To assess the physiological relevance of changes, a tolerance interval of DMSO experiments was calculated at each time point, for each parameter. Specifically, the Δ% values of all (pooled) DMSO wells (N = 81) were used to obtain the non-parametric 80%–95% (p = 0.80 & 1-α = 0.95) tolerance interval (TI). TIs indicate an interval where, with a certain confidence level (1- α = 0.95), a specified proportion (p = 0.80) of percent change for DMSO data falls. The lower and upper limits based on the TI values were used as cut-offs for the interpretation of the changes. For the cytotoxicity assays, measurements of fluorescence (after background fluorescence subtraction) from wells treated with the compounds were normalized by the average value of vehicle experiments (DMSO 0.1%) to obtain a DMSO-corrected, delta/delta percent change. Experiments from each condition, as delta/delta percent, were averaged and expressed as mean ± SD. Statistical analysis was performed using a non-parametric test (Kruskal-Wallis) and each treatment condition was compared to the relative DMSO 0.1%. Differences were considered statistically significant when the p-value was smaller than 0.05.

[4] = system: hiPSC-CMs (iCell-Cardiomyocytes^2); test: RealTime-Glo Annexin V Apoptosis and Necrosis Assay: necrosis; format: cell-based, human
Method: as §1, §2

[5] = system: Annexin V activation in hiPSC-CMs; format: cell-based; settings: for Annexin V (apoptosis activation), Mean±SD: 0.3 µM
Method: The assays were performed according to manufacturer instructions.
as §2, with “Specifically, the Δ% values of all (pooled) DMSO wells (N = 81) were used to obtain the non-parametric 80%–95% (p = 0.80 & 1-α = 0.95) tolerance interval (TI).” left out

[6] = system: caspases 3,7 in hiPSC-CMs; test: ApoLive-Glo Multiplex Assay: apoptosis, caspases 3,7 activation; format: cell-based, human
Method: as §1, §2

Question: Which “Imp (impedance), % change from baseline” value ([1]; 0.1 µM, 2h) does the source give for N=C(N)c1ccc(OCCCCCOc2ccc(C(=N)N)cc2)cc1 [Pentamidine] here?
Answer: 6±3%

Question: What about the “Imp (impedance), % change from baseline” value ([1]; 0.1 µM, 24h) of the same compound?
Answer: -2±5%

Question: What about the “Imp (impedance), % change from baseline” value ([1]; 0.1 µM, 48h) of the same compound?
Answer: -5±4%

Question: What about the “Imp (impedance), % change from baseline” value ([1]; 0.1 µM, 72h) of the same compound?
Answer: -6±3%

Question: What about the “Imp (impedance), % change from baseline” value ([1]; 0.1 µM, 96h) of the same compound?
Answer: 1±6%

Question: And the “Imp (impedance), % change from baseline” value ([1]; 0.3 µM, 2h)?
Answer: 6±2%

Question: What about the “Imp (impedance), % change from baseline” value ([1]; 0.3 µM, 24h) of the same compound?
Answer: -3±4%

Question: What about the “Imp (impedance), % change from baseline” value ([1]; 0.3 µM, 48h) of the same compound?
Answer: -4±4%

Question: What about the “Imp (impedance), % change from baseline” value ([1]; 0.3 µM, 72h) of the same compound?
Answer: -8±5%

Question: And the “Imp (impedance), % change from baseline” value ([1]; 0.3 µM, 96h)?
Answer: -5±3%

Question: And the “Imp (impedance), % change from baseline” value ([1]; 1 µM, 2h)?
Answer: 5±2%

Question: And the “Imp (impedance), % change from baseline” value ([1]; 1 µM, 24h)?
Answer: -4±3%

Question: And the “Imp (impedance), % change from baseline” value ([1]; 1 µM, 48h)?
Answer: -6±4%

Question: What about the “Imp (impedance), % change from baseline” value ([1]; 1 µM, 72h) of the same compound?
Answer: -13±3%

Question: What about the “Imp (impedance), % change from baseline” value ([1]; 1 µM, 96h) of the same compound?
Answer: -18±5%

Question: What about the “Imp (impedance), % change from baseline” value ([1]; 3 µM, 72h) of the same compound?
Answer: -28±8 %

Question: What about the “Imp (impedance), % change from baseline” value ([1]; 3 µM, 96h) of the same compound?
Answer: -42±9 %

Question: And the “Imp (impedance), % change from baseline” value ([1]; 3 µM, 2h)?
Answer: 5±2%

Question: What about the “Imp (impedance), % change from baseline” value ([1]; 3 µM, 24h) of the same compound?
Answer: -4±2%

Question: What about the “Imp (impedance), % change from baseline” value ([1]; 3 µM, 48h) of the same compound?
Answer: -7±6%

Question: And the FPDc prolongation [2]?
Answer: 62%

Question: What does the source list for COc1cccc2c1C(=O)c1c(O)c3c(c(O)c1C2=O)C[C@@](O)(C(=O)CO)C[C@@H]3O[C@H]1C[C@H](N)[C@H](O)[C@H](C)O1 [Doxorubicin]?
Answer: Live Cells (viability), Mean±SD ([3]; 0.3 µM, 24h): -7.1±16.9 Δ/Δ%; Live Cells (viability), Mean±SD ([3]; 0.3 µM, 48h): -9±11.9 Δ/Δ%; drop in live cells assay ([3]; 0.3 µM, 72h): ~40%; Live Cells (viability), Mean±SD ([3]; 1 µM, 24h): -10.5±16.2 Δ/Δ%; number of live cells ([3]; 10 µM, 24, 48, 72 h): strong impact on the number of live cells, further decreasing over time; Necrosis, Mean±SD ([4]; 0.3 µM, 24h): 9.8±45.2 Δ/Δ%; Necrosis, Mean±SD ([4]; 0.3 µM, 48h): 40.2±103.1 Δ/Δ%; Necrosis, Mean±SD ([4]; 1 µM, 24h): 9.8±27 Δ/Δ%; Necrosis, Mean±SD ([4]; 1 µM, 48h): 72.9±120.4 Δ/Δ%; activation of necrosis ([4]; over time, especially at 72 h): also showed the activation of necrosis; Annexin V (apoptosis activation), Mean±SD ([5]; 24h): 24.6±24 Δ/Δ%; Annexin V (apoptosis activation), Mean±SD ([5]; 48h): 31.2±28.5 Δ/Δ%; activation of Annexin V (apoptosis) ([5]; 24, 48, 72 h): largest activation of caspases 3,7, and of Annexin V; Caspases 3, 7 (apoptosis activation), Mean±SD ([6]; 0.3 µM, 24h): 0.6±15.9 Δ/Δ%; Caspases 3, 7 (apoptosis activation), Mean±SD ([6]; 0.3 µM, 48h): 109.5±125.1 Δ/Δ%; Caspases 3, 7 (apoptosis activation), Mean±SD ([6]; 10 µM, 72h): 113±14.3 Δ/Δ%; activation of caspases 3,7 (apoptosis) ([6]; 24, 48, 72 h): induced the largest activation of caspases 3,7; Imp (impedance), % change from baseline ([1]; 0.1 µM, 2h): 3±5%; Imp (impedance), % change from baseline ([1]; 0.1 µM, 24h): -8±5%; Imp (impedance), % change from baseline ([1]; 0.1 µM, 48h): -20±4%; Imp (impedance), % change from baseline ([1]; 0.1 µM, 72h): -27±4%; Imp (impedance), % change from baseline ([1]; 0.1 µM, 96h): -30±8%; Imp (impedance), % change from baseline ([1]; 0.3 µM, 2h): -1±1%; Imp (impedance), % change from baseline ([1]; 0.3 µM, 24h): -23±6 %; Imp (impedance), % change from baseline ([1]; 0.3 µM, 48h): -47±6 %; Imp (impedance), % change from baseline ([1]; 0.3 µM, 72h): -70±7 %; decrease in the impedance signal ([1]; 0.3 µM, 72h): ~70%; Imp (impedance), % change from baseline ([1]; 0.3 µM, 96h): -81±7 %; Imp (impedance), % change from baseline ([1]; 1 µM, 2h): -1±2%; Imp (impedance), % change from baseline ([1]; 1 µM, 24h): -56±4 %; Imp (impedance), % change from baseline ([1]; 1 µM, 48h): -86±1 %; Imp (impedance), % change from baseline ([1]; 1 µM, 72h): -89±2 %; Imp (impedance), % change from baseline ([1]; 1 µM, 96h): -89±2 %; Imp (impedance), % change from baseline ([1]; 3 µM, 72h): -87±0 %; Imp (impedance), % change from baseline ([1]; 3 µM, 96h): -88±1 %; Imp (impedance), % change from baseline ([1]; 3 µM, 2h): -2±0%; Imp (impedance), % change from baseline ([1]; 3 µM, 24h): -56±5 %; Imp (impedance), % change from baseline ([1]; 3 µM, 48h): -85±2 %
